Values quoted from earlier work in patent US8269040B2, “Derivatives of venlafaxine and methods of preparing and using the same” (Wyeth LLC, priority 1999, dated 2012).

How the values were obtained:
[1] = tested on: norepinephrine synaptosomal uptake; details: versus the other enantiomer
serotonin uptake = details: versus the other enantiomer
dopamine uptake = dopamine uptake (Rattus norvegicus, UniProt P23977); details: in vitro; versus parent compound venlafaxine
norepinephrine uptake = details: in vitro; versus parent compound venlafaxine

dopamine uptake, sequence (P23977 whole entry): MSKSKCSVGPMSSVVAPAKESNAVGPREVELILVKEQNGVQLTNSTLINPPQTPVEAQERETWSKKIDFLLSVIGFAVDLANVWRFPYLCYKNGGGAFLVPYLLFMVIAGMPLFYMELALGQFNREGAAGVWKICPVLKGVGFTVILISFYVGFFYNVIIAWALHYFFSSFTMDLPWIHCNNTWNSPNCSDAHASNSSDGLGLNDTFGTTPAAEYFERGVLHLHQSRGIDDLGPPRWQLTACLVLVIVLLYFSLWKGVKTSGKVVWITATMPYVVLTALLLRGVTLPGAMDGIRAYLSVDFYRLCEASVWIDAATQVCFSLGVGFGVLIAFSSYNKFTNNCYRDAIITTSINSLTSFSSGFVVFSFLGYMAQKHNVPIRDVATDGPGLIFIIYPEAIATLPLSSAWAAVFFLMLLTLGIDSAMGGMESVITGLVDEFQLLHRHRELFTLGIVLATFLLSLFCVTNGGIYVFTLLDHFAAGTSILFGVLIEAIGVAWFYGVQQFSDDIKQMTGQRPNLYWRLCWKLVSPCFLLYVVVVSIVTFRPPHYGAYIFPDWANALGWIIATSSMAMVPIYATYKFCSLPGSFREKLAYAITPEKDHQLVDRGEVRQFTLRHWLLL

COc1ccc(C(CN(C)C)C2(O)CCCCC2)cc1 (single isomer, unassigned; (-)) [(−) enantiomer]
potency as inhibitor of norepinephrine synaptosomal uptake, comparison of enantiomers [1]: more potent inhibitor

COc1ccc(C(CN(C)C)C2(O)CCCCC2)cc1 (single isomer, unassigned; (+)) [(+) enantiomer]
selectivity in inhibiting serotonin uptake, comparison of enantiomers (serotonin uptake): more selective

CN(C)CC(c1ccc(O)cc1)C1(O)CCCCC1 (racemic) [O-desmethylvenlafaxine, (±)-1-[2-(dimethylamino)-1-(4-phenol)ethyl]cyclohexanol]
potency as inhibitor of dopamine uptake compared with venlafaxine (dopamine uptake): more potent inhibitor | half-life relative to that of venlafaxine (compared with venlafaxine): approximately 2.5 times | half-life (t1/2) (in vivo): about 10 hours | potency as inhibitor of norepinephrine uptake compared with venlafaxine (norepinephrine uptake): more potent inhibitor
